One series deals with MV-4-11 cells. Description: MV-4-11 (leukemia) cell proliferation assay (ATPlite). The class given is cell-based. The conditions noted are these: Homo sapiens, MV4-11, read-out: Inhibition of Cell Proliferation IC50, MV-4-11. The procedure: Compounds are assessed in a variety of cell based assays. For example BaF3 cells engineered with any of BCR-FMS, BCR-KIT, BCR-FLT3, BCR-NTRK1, BCR-NTRK2, and BCR-NTRK3, are used in cell proliferation assays to assess inhibitory activity of Fms, Kit, Flt-3, TrkA, TrkB, and TrkC, respectively. An MV-4-11 (leukemia) cell proliferation assay is used to assess inhibitory activity in Flt-3, and SKNSH (human neuroblastoma) cell proliferation assay is used to assess efficacy of Fms/Trk inhibitors. Additional cells may be assayed similarly to assess the efficacy of Fms/Trk inhibitors, such as MiaPaCa (human pancreatic cancer) and Capan-1 (human pancreatic carcinoma) cells. Reagent and assay conditions are as follows: • BaF3 cells: • Maintained in RPMI containing 10% FBS, 1% PenStrep, 1% NEAA, and 1% L-Glutamine, supplemented with 1 mg/mL G418 and 5% WEHI-CM (or recombinant murine IL-3). • Confluent cells are split 1:50 to 1:100 every 3-4 days. • MV-4-11 cells: • Maintained in Iscove's Modified Dulbecco's Medium containing 10% FBS. • Confluent cells are split 1:4 every 3-4 days. • SKNSH cells: RPMI containing 10% FBS. On day 1, cells are counted, then centrifuged in a conical tube for 5 minutes at 1000 rpm. The supernatant is removed and cells are re-suspended as follows: • BaF3: resuspend in growth media +1 mg/mL G418 (without WEHFIL-3) to 2×10^5 cells/mL. • MV-4-11: resuspend in growth media to 5×10^5 cells/mL. • SKNSH: resuspend in growth media to 2×10^4 cells/mL. The cells are plated (50 μL, 150 μL for SKNSH cells) in each well of a 96-well dish (Corning 3610) and incubated at 37° C. in 5% CO2 overnight, cells plated to a final concentration of cells as follows: • BaF3: 10,000 cells per well. • MV-4-11: 25,000 cells per well. • SKNSH: 3,000 cells per well. On day 2, compound at a maximum concentration of 5 mM is serially diluted 1:3 for a total of 8 point titration with DMSO as a control. A 1 μL aliquot of each dilution point is added to 249 μL growth media and 50 μL is added to a well containing cells, providing 10 μM compound for the maximum concentration point. The cells are incubated for 3 days at 37° C. in 5% CO2. For SKNSH cells, a 0.75 μL aliquot of appropriate dilution in DMSO is added to 150 μL of cells. On day 5, ATPlite 1 step Luminescence Assay System (Perkin Elmer #6016739) is brought to room temperature along with the cell cultures. ATPlite is added to each well as follows: • BaF3: 25 μL per well. • MV-4-11: 40 μL per well. • SKNSH: 20 μL per well. The cells are incubated at room temperature for 10 minutes, then luminescence is read on Safire reader. The measured luminescence correlates directly with cell number, such that the reading as a function of compound concentration is used to determine the IC50 value.
It is understood that the results of these assays may vary as assay conditions are varied. Inhibition levels determined under the conditions described herein represent a relative activity for the compounds tested under the specific conditions employed. The cell based assays are likely to show variability due to the complexity of the system and the sensitivity thereof to any changes in the assay conditions. […] Results for compounds that are tested and show substantially no inhibition below the highest tested concentration are represented as “-” in the tables below. In some instances, the compounds were not tested in all of the assays, or assay results were not valid, as indicated by NA in the tables below.

For a further series, the system named is SKNSH cells. Description: SKNSH (human neuroblastoma) cell proliferation assay (ATPlite). The settings on record: SK-N-SH, read-out: Inhibition of Cell Proliferation IC50, SKNSH. The class given is cell-based. An outline of the steps: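 Fms/Trk inhibitor efficacy was tested by proliferation of SKNSH neuroblastoma cells. After 3 days of compound exposure at 37° C. in 5% CO2, 20 μL per well of ATPlite 1 step reagent was added, plates sat 10 minutes at room temperature, and luminescence, proportional to cell number, was read on a Safire reader to derive IC50.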
(In ATP-based viability assays light output follows the ATP content of the culture.)

A short description of series [1]: Relative solubility by turbidity in aqueous buffers (pH 1.5, 4.5, 6.8, 7.4). The class given is physicochemical. The conditions noted are these: for turbidity threshold (L, M, H) 1.4: pH 1.5 (SGF); for turbidity threshold (L, M, H) 4.5: pH 4.5 (SIF); for turbidity threshold (L, M, H) 6.8: pH 6.8 (SIF); for turbidity threshold (L, M, H) 7.4: pH 7.4 (HEPES). An outline of the steps:
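Reported value: concentration at which optical density at 490, 535 and 650 nm passes 0.01, taken as the mean of the three wavelengths. Buffers were 0.5M NaCl pH 1.5, 0.05M NaH2PO4 pH 4.5 or 6.8, and 10 mM HEPES/150 mM NaCl pH 7.4, each receiving serial 1:1 DMSO dilutions of a 25 mM stock.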

Consider `COc1cc(Nc2ncc(Cc3c[nH]c4ncc(C)cc34)cn2)ccc1F` [Compound P-3022, (4-Fluoro-3-methoxy-phenyl)-[5-(5-methyl-1H-pyrrolo[2,3-b]pyridin-3-ylmethyl)-pyrimidin-2-yl]-amine], for which the IC50 with MV-4-11 cells was < 1 µM.
On the same count and under the same terms, the value for `COc1ccc(Nc2ncc(Cc3c[nH]c4ncc(C)cc34)cn2)cc1F` [Compound P-3023, (3-Fluoro-4-methoxy-phenyl)-[5-(5-methyl-1H-pyrrolo[2,3-b]pyridin-3-ylmethyl)-pyrimidin-2-yl]-amine] was < 0.1 µM.
For `COc1ccc(Nc2ccc(Cc3c[nH]c4ncnc(C)c34)c(F)n2)cn1` [Compound P-4002, [6-Fluoro-5-(4-methyl-7H-pyrrolo[2,3-d]pyrimidin-5-ylmethyl)-pyridin-2-yl]-(6-methoxy-pyridin-3-yl)-amine], in the series with SKNSH cells, the IC50 is < 0.1 µM. In series [1], the “turbidity threshold (L, M, H) 1.4” value was “H (high solubility if the threshold concentration is >250 μm)”; the “turbidity threshold (L, M, H) 4.5” value is “M (moderate solubility if the threshold concentration is 31.3 μM to 250 μM)”; the “turbidity threshold (L, M, H) 6.8” value was “M (moderate solubility if the threshold concentration is 31.3 μM to 250 μM)”; the “turbidity threshold (L, M, H) 7.4” value is “M (moderate solubility if the threshold concentration is 31.3 μM to 250 μM)”.
`COc1ccc(Nc2ccc(C(=O)c3c[nH]c4ncnc(C5CC5)c34)c(F)n2)cn1` [Compound P-4022, (4-cyclopropyl-7H-pyrrolo[2,3-d]pyrimidin-5-yl)-[2-fluoro-6-(6-methoxy-pyridin-3-ylamino)-pyridin-3-yl]-methanone]: the IC50 in the series with SKNSH cells is < 1 µM. In series [1], the “turbidity threshold (L, M, H) 1.4” value was “H (high solubility if the threshold concentration is >250 μm)”; the “turbidity threshold (L, M, H) 4.5” value is on record as “M (moderate solubility if the threshold concentration is 31.3 μM to 250 μM)”; the “turbidity threshold (L, M, H) 6.8” value is on record as “L (low solubility if the threshold concentration is <31.3 μM)”; the “turbidity threshold (L, M, H) 7.4” value is “L (low solubility if the threshold concentration is <31.3 μM)”.
Take `COc1ccc(Nc2ccc(Cc3c[nH]c4ncnc(C5CC5)c34)c(F)n2)cn1` [Compound P-4023, [5-(4-cyclopropyl-7H-pyrrolo[2,3-d]pyrimidin-5-ylmethyl)-6-fluoro-pyridin-2-yl]-(6-methoxy-pyridin-3-yl)-amine]: in the series on SKNSH cells, the IC50 was < 1 µM. In addition, in series [1], the “turbidity threshold (L, M, H) 1.4” value is reported as “H (high solubility if the threshold concentration is >250 μm)”; the “turbidity threshold (L, M, H) 4.5” value is reported as “M (moderate solubility if the threshold concentration is 31.3 μM to 250 μM)”; the “turbidity threshold (L, M, H) 6.8” value is reported as “L (low solubility if the threshold concentration is <31.3 μM)”; the “turbidity threshold (L, M, H) 7.4” value was “L (low solubility if the threshold concentration is <31.3 μM)”.
On to `CCOc1ccc(Nc2ccc(C(=O)c3c[nH]c4ncnc(OC)c34)c(F)n2)cn1` [Compound P-4024, [6-(6-Ethoxy-pyridin-3-ylamino)-2-fluoro-pyridin-3-yl]-(4-methoxy-7H-pyrrolo[2,3-d]pyrimidin-5-yl)-methanone], for which the IC50 in the series with SKNSH cells was > 1 µM. In series [1], the “turbidity threshold (L, M, H) 1.4” value is on record as “M (moderate solubility if the threshold concentration is 31.3 μM to 250 μM)”; the “turbidity threshold (L, M, H) 4.5” value was “L (low solubility if the threshold concentration is <31.3 μM)”; the “turbidity threshold (L, M, H) 6.8” value is reported as “M (moderate solubility if the threshold concentration is 31.3 μM to 250 μM)”; the “turbidity threshold (L, M, H) 7.4” value was “M (moderate solubility if the threshold concentration is 31.3 μM to 250 μM)”.
As for `CCOc1ncnc2[nH]cc(C(=O)c3ccc(Nc4ccc(OC)nc4)nc3F)c12` [Compound P-4025, (4-Ethoxy-7H-pyrrolo[2,3-d]pyrimidin-5-yl)-[2-fluoro-6-(6-methoxy-pyridin-3-ylamino)-pyridin-3-yl]-methanone], the IC50 in the series on SKNSH cells is > 1 µM. In series [1], the “turbidity threshold (L, M, H) 1.4” value is recorded as “M (moderate solubility if the threshold concentration is 31.3 μM to 250 μM)”; the “turbidity threshold (L, M, H) 4.5” value is reported as “L (low solubility if the threshold concentration is <31.3 μM)”; the “turbidity threshold (L, M, H) 6.8” value is given as “L (low solubility if the threshold concentration is <31.3 μM)”; the “turbidity threshold (L, M, H) 7.4” value is reported as “L (low solubility if the threshold concentration is <31.3 μM)”.
Take `Fc1nc(NC2CCC(F)(F)CC2)ccc1Cc1c[nH]c2ncnc(NCC(F)(F)F)c12` [Compound P-4128, 5-[[6-[(4,4-difluorocyclohexyl)amino]-2-fluoro-3-pyridyl]methyl]-N-(2,2,2-trifluoroethyl)-7H-pyrrolo[2,3-d]pyrimidin-4-amine]: the IC50 in the series with SKNSH cells is > 1 µM. In series [1], the “turbidity threshold (L, M, H) 1.4” value was “H (high solubility if the threshold concentration is >250 μm)”; the “turbidity threshold (L, M, H) 4.5” value is “M (moderate solubility if the threshold concentration is 31.3 μM to 250 μM)”; the “turbidity threshold (L, M, H) 6.8” value is “M (moderate solubility if the threshold concentration is 31.3 μM to 250 μM)”; the “turbidity threshold (L, M, H) 7.4” value is recorded as “M (moderate solubility if the threshold concentration is 31.3 μM to 250 μM)”.
For `Fc1nc(NC2CCC(F)(F)CC2)ccc1Cc1c[nH]c2ncnc(NC3CC3)c12` [Compound P-4129, N-cyclopropyl-5-[[6-[(4,4-difluorocyclohexyl)amino]-2-fluoro-3-pyridyl]methyl]-7H-pyrrolo[2,3-d]pyrimidin-4-amine], the IC50 in the series with SKNSH cells is > 10 µM. In series [1], the “turbidity threshold (L, M, H) 1.4” value is recorded as “H (high solubility if the threshold concentration is >250 μm)”; the “turbidity threshold (L, M, H) 4.5” value was “M (moderate solubility if the threshold concentration is 31.3 μM to 250 μM)”; the “turbidity threshold (L, M, H) 6.8” value is on record as “M (moderate solubility if the threshold concentration is 31.3 μM to 250 μM)”; the “turbidity threshold (L, M, H) 7.4” value is “M (moderate solubility if the threshold concentration is 31.3 μM to 250 μM)”.
In the case of `Fc1nc(Nc2ccc(C3CC3)nc2)ccc1Cc1c[nH]c2ncnc(NCC(F)(F)F)c12` [Compound P-4130, 5-[[6-[(6-cyclopropyl-3-pyridyl)amino]-2-fluoro-3-pyridyl]methyl]-N-(2,2,2-trifluoroethyl)-7H-pyrrolo[2,3-d]pyrimidin-4-amine], the IC50 with SKNSH cells is < 10 µM. In series [1], the “turbidity threshold (L, M, H) 1.4” value is on record as “H (high solubility if the threshold concentration is >250 μm)”; the “turbidity threshold (L, M, H) 4.5” value is listed as “M (moderate solubility if the threshold concentration is 31.3 μM to 250 μM)”; the “turbidity threshold (L, M, H) 6.8” value is reported as “M (moderate solubility if the threshold concentration is 31.3 μM to 250 μM)”; the “turbidity threshold (L, M, H) 7.4” value is on record as “M (moderate solubility if the threshold concentration is 31.3 μM to 250 μM)”.
